From patent US20250304608A1, “PHOSPHORUS COMPOUND AND USE THEREOF” (SHANGHAI SHIJIANG BIOTECHNOLOGY CO., LTD., priority 2022, published 2025)

What was measured:
Assay type in all cases: cell-based
mPTP-active Daoy cell = experiment: CellTiter-Glo cell viability inhibition, mPTP-active Daoy cell; conditions: Homo sapiens; Daoy cell transfected with empty virus vector; CellTiter-Glo; read-out: mPTP-active Daoy cell (IC50)
mPTP-inactive Daoy cell = experiment: CellTiter-Glo cell viability inhibition, mPTP-inactive Daoy cell; conditions: Homo sapiens, Daoy cell transfected with PPIF shRNA vector
Con-NCI-H82 cell = experiment: CellTiter-Glo cell viability inhibition, Con-NCI-H82 cell; conditions: Homo sapiens, NCI-H82 cell transfected with empty virus vector
Text: (§1) The expression of NNMT protein in NCI-H82 cell was overexpressed by inserting the NNMT gene into NCI-H82 cell using a viral vector, and the NNMT protein-overexpressing NCI-H82 cell (ov-NNMT NCI-H82 cell) was obtained. The control NCI-H82 cell (Con-NCI-H82 cell) was obtained by transfecting NCI-H82 cell with empty virus vector without carrying NNMT gene. The expressing content of NNMT protein in the Con-NCI-H82 cell and ov-NNMT NCI-H82 cell was detected using Western Blot assay (as shown in FIG. 3), it could be seen from FIG. 3 that the NNMT protein was overexpressed in the ov-NNMT NCI-H82 cell compared with the expression level of NNMT protein in the Con-NCI-H82 cell.

ov-NNMT NCI-H82 cell = experiment: CellTiter-Glo cell viability inhibition, ov-NNMT NCI-H82 cell; conditions: Homo sapiens, NCI-H82 cell overexpressing NNMT protein
Text: as §1

Compound | IC50 (mPTP-active Daoy cell) | IC50 (mPTP-inactive Daoy cell) | IC50 (Con-NCI-H82 cell) | IC50 (ov-NNMT NCI-H82 cell)
c1ccc([P+](c2ccccc2)(c2cccc3[nH]ccc23)c2cccc3[nH]ccc23)cc1 [AB35419] | 0.74 µM | 0.15 µM | 0.05 µM | 0.56 µM
c1ccc([P+](c2ccccc2)(c2ccccc2)c2ccc3cc[nH]c3c2)cc1 [AB35431] | 2 µM | 0.65 µM | 0.32 µM | 1.03 µM
c1ccc([P+](c2ccccc2)(c2ccc3cc[nH]c3c2)c2ccc3cc[nH]c3c2)cc1 [AB35437] | 0.92 µM | 0.3 µM | 0.27 µM | 1.21 µM
c1ccc([P+](c2ccccc2)(c2ccccc2)c2cccc3cc[nH]c23)cc1 [AB35449] | 7.12 µM | 2.44 µM | 2.17 µM | 6.47 µM
c1ccc([P+](c2ccccc2)(c2ccccc2)c2cccc3[nH]ccc23)cc1 [AB35450] | 0.43 µM | 0.1 µM | 0.23 µM | 1.56 µM
c1ccc([P+](c2ccccc2)(c2ccc3[nH]ccc3c2)c2ccc3[nH]ccc3c2)cc1 [AB35451] | 1.22 µM | 0.28 µM | 0.13 µM | 0.96 µM
c1ccc([P+](c2ccccc2)(c2cccc3[nH]ccc23)c2cncc3[nH]ccc23)cc1 [AB35452] | 5.39 µM | 0.82 µM | 0.63 µM | 2.34 µM
c1ccc([P+](c2ccccc2)(c2cccc3cc[nH]c23)c2cccc3cc[nH]c23)cc1 [AB35462] | 28.9 µM | 12.7 µM | 6.48 µM | 20.6 µM
c1ccc([P+](c2ccccc2)(c2cccc3[nH]ccc23)c2ccnc3[nH]ccc23)cc1 [AB35471] | 4.35 µM | 0.81 µM | 0.34 µM | 2.16 µM
c1ccc([P+](c2ccccc2)(c2cccnc2)c2ccc3cc[nH]c3c2)cc1 [AB35472] | 38.5 µM | 10.7 µM | 8.11 µM | 19.4 µM
c1ccc([P+](c2ccccc2)(c2cccnc2)c2ccc3[nH]ccc3c2)cc1 [AB35473] | 18.1 µM | 2.95 µM | 3.27 µM | 12.3 µM
c1ccc([P+](c2ccccc2)(c2ccncc2)c2cccc3[nH]ccc23)cc1 [AB35474] | 18.4 µM | 2.45 µM | 3.66 µM | 13.6 µM
c1ccc([P+](c2ccccc2)(c2cncc3[nH]ccc23)c2cncc3[nH]ccc23)cc1 [AB35477] | 24.2 µM | 10.3 µM | 25.3 µM | > 50 µM
c1ccc([P+](c2ccccc2)(c2ccncc2)c2ccc3cc[nH]c3c2)cc1 [AB35479] | 25.1 µM | 6.51 µM | 6.36 µM | 25.5 µM
c1ccc([P+](c2ccccc2)(c2cccc3[nH]ncc23)c2cccc3[nH]ncc23)cc1 [AB35480] | > 50 µM | 6.26 µM | 13.8 µM | 40.1 µM
c1ccc([P+](c2ccccc2)(c2ccccc2)c2cccc3[nH]ncc23)cc1 [AB35481] | 16.7 µM | 2.5 µM | 2.45 µM | 9.82 µM
c1ccc([P+](c2ccccc2)(c2cccc3[nH]ccc23)c2cccc3[nH]ncc23)cc1 [AB35482] | 3.97 µM | 0.61 µM | 0.41 µM | 2.13 µM
c1ccc([P+](c2ccccc2)(c2ccc3cc[nH]c3c2)c2ccccn2)cc1 [AB35507] | 4.08 µM | 1.73 µM | 0.78 µM | 3.96 µM
COc1ccc([P+](c2ccc(OC)cc2)(c2ccc(OC)cc2)c2cccc3[nH]ccc23)cc1 [AB35527] | 1.21 µM | 0.25 µM | 0.36 µM | 1.45 µM

Compound | IC50 (mPTP-active Daoy cell) | IC50 (mPTP-inactive Daoy cell) | IC50 (Con-NCI-H82 cell) | IC50 (ov-NNMT NCI-H82 cell)
c1ccc([P+](c2ccccc2)(c2ccc3[nH]ccc3c2)c2ccc3[nH]ncc3c2)cc1 [AB35529] | 4.11 µM | 0.88 µM | 0.38 µM | 1.87 µM
c1ccc([P+](c2ccccc2)(c2ccc3[nH]ccc3c2)c2cnc3[nH]ccc3c2)cc1 [AB35537] | 2.24 µM | 0.79 µM | 0.51 µM | 2.33 µM
c1ccc([P+](c2ccccc2)(c2ccc3cc[nH]c3c2)c2ccc3cn[nH]c3c2)cc1 [AB35538] | 5.94 µM | 1.71 µM | 0.97 µM | 3.86 µM
c1ccc([P+](c2ccccc2)(c2ccc3[nH]ccc3c2)c2ccc3[nH]cnc3c2)cc1 [AB35539] | 12.2 µM | 3.88 µM | 1.55 µM | 6.03 µM
c1ccc([P+](c2ccccc2)(c2ccc3cc[nH]c3c2)c2ccc3nc[nH]c3c2)cc1 [AB35548] | 8.09 µM | 2.64 µM | 2.22 µM | 7.14 µM
c1ccc([P+](c2ccccc2)(c2ccc3cc[nH]c3c2)c2cnc3cc[nH]c3c2)cc1 [AB35549] | 10.5 µM | 3.85 µM | 3.18 µM | 9.57 µM
c1ccc([P+](c2ccccc2)(c2cnc3[nH]ccc3c2)c2cccc3[nH]ccc23)cc1 [AB35563] | 1.51 µM | 0.56 µM | 0.46 µM | 2.09 µM
Cn1ccc2c([P+](c3ccccc3)(c3ccccc3)c3cccc4[nH]ccc34)cccc21 [AB35564] | 0.39 µM | 0.05 µM | 0.13 µM | 1.32 µM
c1ccc([P+](c2ccccc2)(c2ccc3[nH]cnc3c2)c2cccc3[nH]ccc23)cc1 [AB35569] | 12.2 µM | 2.34 µM | 1.66 µM | 5.34 µM
c1ccc([P+](c2ccccc2)(c2cnc3cc[nH]c3c2)c2cccc3[nH]ccc23)cc1 [AB35570] | 15.7 µM | 3.99 µM | 3.34 µM | 11.8 µM
Cn1ccc2cc([P+](c3ccccc3)(c3ccccc3)c3ccccc3)ccc21 [AB35571] | 1.38 µM | 0.27 µM | 0.19 µM | 1.43 µM
c1ccc([P+](c2ccccc2)(c2cccc3[nH]ccc23)c2cccc3[nH]cnc23)cc1 [AB35572] | 10.3 µM | 3.34 µM | 0.28 µM | 1.95 µM
Cn1ccc2c([P+](c3ccccc3)(c3ccccc3)c3ccccc3)cccc21 [AB35573] | 1.26 µM | 0.24 µM | 0.14 µM | 1.37 µM
Cn1cc2c([P+](c3ccccc3)(c3ccccc3)c3cccc4c3ccn4C)cccc2n1 [AB35574] | 8.35 µM | 2.45 µM | 0.41 µM | 2.56 µM
c1ccc([P+](c2ccccc2)(c2ccccc2)c2ccc3c(ccn3CCN3CCOCC3)c2)cc1 [AB35576] | 1.6 µM | 0.46 µM | 0.51 µM | 2.93 µM
Cn1ccc2c([P+](c3ccccc3)(c3ccccc3)c3cccc4[nH]ncc34)cccc21 [AB35577] | 3.89 µM | 1.21 µM | 1.08 µM | 4.54 µM
Cn1ccc2c([P+](c3ccccc3)(c3ccccc3)c3cccc4c3cnn4C)cccc21 [AB35578] | 3.8 µM | 1.45 µM | 1.27 µM | 4.93 µM
c1ccc([P+](c2ccccc2)(c2ccccc2)c2cccc3c2ccn3CCN2CCCCC2)cc1 [AB35579] | 1.21 µM | 0.27 µM | 0.51 µM | 2.77 µM
